Legend:
ELAM-1 = test: Inhibitory effect on TNF-α-induced expression of ELAM-1 in HUVECs; type: cell-based; conditions: Homo sapiens, HUVEC; HUVECs, TNF-α 100 U/ml, 5 hr; read-out: Inhibitory effect (IC50) on ELAM-1 expression
Protocol: Inhibitory effect on expression of VCAM-1 and ELAM-1 in human umbilical vein-derived endothelial cells (HUVECs)
HUVECs were suspended in 199 medium containing 20% FCS, 20 μg/ml endothelial cell growth factor derived from bovine brain, and 100 μg/ml heparin, plated into 96-well microculture plates coated with collagen, and cultured at 37° C. in 5% CO2. When cells were grown to confluence, the cells received tumour necrosis factor (TNF)-α (20 U/ml for VCAM-1 expression, 100 U/ml for ELAM-1 expression) and cultured for 5 hr. After the cells were washed once with 199 medium, mouse anti-human VCAM-1 monoclonal antibody (2 μg/ml) or rat anti-human ELAM-1 monoclonal antibody (2 μg/ml) was added, and the cells were incubated for 1 hr at room temperature. After the cells were washed twice, peroxidase-conjugated anti-mouse immunoglobulin antibody or anti-rat immunoglobulin antibody was added, and the cells were incubated for 1 hr at room temperature. After the cells were washed 3 times, 2,2'-azino-bis(3-ethylbenzothiazolone-6-sulfonic acid) was added. After the plates were stood for 15 min at room temperature, absorbance at 405 nm with a reference wave length of 490 nm was measured with a 96-well microplate reader and was regarded as a indicator of VCAM-1 or ELAM-1 expression.

[1] = system: oxazolone-induced ear edema; test: Effect on oxazolone-induced ear edema in mice; type: in vivo; conditions: sensitized mice, 24 hr after challenge
Protocol: Effect on oxazolone-induced ear edema in mice.
Mice were sensitized by applying 50 μl of oxazolone solution (50 mg/ml in acetone) to their shaved abdomen on day 0. On day 7, 5 μl of oxazolone solution was applied to each surface of the right ear. After 24 hr (day 8), the right and left ears were cut off with a puncher of 6 mm in diameter and weighed with an electronic reading balance. The difference in weight between the oxazolone-treated ear (right) and untreated ear (left) was taken to reflect the extent of ear edema. Test compounds were suspended in 0.5% hydroxypropylmethycellulose solution and administered p.o. (0.1 ml/10 g body weight) on days 0 to 4 (once a day) and day 7 (twice a day).

[2] = system: thioglycollate (TG) medium-induced infiltration of leukocytes; test: Effect on thioglycollate (TG) medium-induced infiltration of leukocytes; type: in vivo, BALB/c mice; conditions: TG medium 1 ml, day 4
Protocol: Effect on thioglycollate (TG) medium-induced infiltration of leukocytes
One ml of TG medium was injected into peritoneal cavity of BALB/c mice on day 0. On day 4, leukocytes infiltrating into the peritoneal cavity were collected with 3 ml of phosphatebuffered saline containing 0.02% EDTA and the density of leukocytes (cells/ml) was counted with an automatic blood cell counter. Total number of leukocytes (X) was calculated from the density of leukocytes (A) with the following formula.
Test compounds were suspended in 0.5% hydroxypropylmethyl-cellulose solution and administered p.o. (0.1 ml/10 g body weight) on days 0 to 3.

[3] = system: lipopolysaccharide (LPS)-induced adhesion of leukocytes; test: Effect on lipopolysaccharide (LPS)-induced adhesion of leukocytes; type: in vivo, BALB/c mice; conditions: 6 hr after LPS
From the text: Effect on lipopolysaccharide (LPS)-induced adhesion of leukocytes
It has been reported that, by the administration of LPS to mice, an adhesion molecule, Mac-1-dependent leukocyte adhesion is induced, the leukocytes infiltrate into lung, liver and so on, and in result the number of peripheral blood leukocytes reduces (Morisaki et al., Clin. Immunol. Immunopathol., 61, 365-375, 1991). The effect on LPS-induced leukocyte adhesion was investigated by taking the reduction of peripheral blood leukocytes as an indicator of leukocyte adhesion.
LPS solution (50 ng/ml in saline, 0,5 ml/mouse) was injected into peritoneal cavity of BALB/c mice on day 0. Six hr after the LPS injection, the number of peripheral blood leukocytes was counted with an automatic blood cell counter. Test compounds were suspended in 0.5% hydroxypropylmethylcellulose solution and administered p.o. (0.1 ml/10 g body weight) on days -4 to 0.

TNBS-induced colitis = test: Effect on TNBS-induced colitis model in rats (oral administration); type: in vivo, SD rats; conditions: for Intestinal weight (mean ± S.D.) / MPO activity (mean ± S.D.): TNBS, 7 days
Protocol: Effect on trinitrobenzenesufonic acid (TNBS)-induced colitis model in rats
Colitis was induced by intrarectal injection of TNBS solution (60 mg/ml in 50% EtOH, 500 μl/rat) to SD rats. Seven days later, rats were sacrificed and large intestine (8 cm from anus) was cut off and weighed. Myeloperoxidase (MPO) activity in the intestinal tissue was measured as follows and taken as an indicator of leukocyte infiltration: the intestinal tissue was homogenized and a cycle of freeze-thawing of the tissue was repeated 3 times. The supernatant obtained by centrifugation was assayed for MPO activity with substrate for peroxidase (o-phenylenediamine). MPO activity in the supernatant was calculated with the commercial MPO as a standard. The increases in intestinal weight and MPO activity as described above were taken as indicators of colitis. Test compound was suspended in 0.5% hydroxypropylmethylcellulose solution and administered p.o. (0.1 ml/10 g body weight) for 5 days beginning on the day of TNBS injection.

glomerulonephritis = test: Effect on glomerulonephritis in mice (anti-GBM antiserum); type: in vivo, female C57BL/6 mice; conditions: 12 days after anti-GBM antiserum, 0-5 points
Protocol: Effect on glomerulonephritis in mice
Rabbit immunoglobulin G solution (4 mg/ml in saline) was mixed with Freund's complete adjuvant at a ratio of 1:1 and the emulsion was prepared. The emulsion was injected into peritoneal cavity of female C57BL/6 mice (0.25 ml/mouse). After 5 days, rabbit anti-mouse glomerular basement membrane (GBM) antiserum obtained by the method of Nagai et al. (Japan. J. Pharmacol., 32, 1117, 1982) was administered i.v. (0.08 ml/mouse). […] Test compounds were suspended in 0.5% hydroxypropylmethylcellulose (HPMC) solution and administered p.o. (0.1 ml/10 g body weight) for 13 days beginning on the day of anti-GBM ant-serum injection.

SMILES: CNC(=O)C[C@@H]1N=C(c2ccc(Cl)cc2)c2c(sc(C)c2C)-n2c(C)nnc21 [Example 1, (S)-N-methyl-4-(4-chloro-phenyl)-2,3,9-trimethyl-6H-thieno[3,2-f][1,2,4]triazolo[4,3-a]-[1,4]diazepine-6-acetamide 1/4 hydrate]
- IC50 (ELAM-1): 52 nM
- Increase in ear weight (mean ± S.D.) ([1]; 0.1 mg/kg p.o.): 16.3 ± 1.0 mg
- Increase in ear weight (mean ± S.D.) ([1]; 0.3 mg/kg p.o.): 15.0 ± 0.6 mg
- Increase in ear weight (mean ± S.D.) ([1]; 1 mg/kg p.o.): 14.2 ± 0.8 mg
- Total number of leukocytes (mean ± S.D.) ([2]; 0.03 mg/kg/day p.o.): 1059 ± 285 × 10^4
- Total number of leukocytes (mean ± S.D.) ([2]; 0.1 mg/kg/day p.o.): 719 ± 308 × 10^4
- Total number of leukocytes (mean ± S.D.) ([2]; 0.3 mg/kg/day p.o.): 442 ± 117 × 10^4
- Number of peripheral blood leukocytes (mean ± S.D.) ([3]; 0.3 mg/kg/day p.o.): 32 ± 5 × 100/μl
- Number of peripheral blood leukocytes (mean ± S.D.) ([3]; 1 mg/kg/day p.o.): 50 ± 15 × 100/μl
- Number of peripheral blood leukocytes (mean ± S.D.) ([3]; 3 mg/kg/day p.o.): 61 ± 13 × 100/μl
- Intestinal weight (mean ± S.D.) (TNBS-induced colitis; 0.3 mg/kg/day p.o.): 1328.6 ± 1411.4 mg
- MPO activity (mean ± S.D.) (TNBS-induced colitis; 0.3 mg/kg/day p.o.): 1.389 ± 2.806 U/ml
- Intestinal weight (mean ± S.D.) (TNBS-induced colitis; 1 mg/kg/day p.o.): 574.2 ± 93.1 mg
- MPO activity (mean ± S.D.) (TNBS-induced colitis; 1 mg/kg/day p.o.): 0.221 ± 0.020 U/ml
- Effect on intestinal weight and leukocyte infiltration in colitis (in words) (TNBS-induced colitis; p.o., Tables 6A and 6B): significantly inhibit the increase in intestinal weight and the leukocyte infiltration caused by colitis in rats
- Score (mean ± S.D.) of protein level in urine (glomerulonephritis; 1 mg/kg/day p.o.): 2.56 ± 0.53
- Score (mean ± S.D.) of protein level in urine (glomerulonephritis; 3 mg/kg/day p.o.): 2.22 ± 0.67
